Measured values: patent US20090203716A1, “Pyrimidine low molecular weight ligands for modulating hormone receptors” (The Government of the United States of America as …, priority 2006, published 2009)

Key:
human LHCG receptor = molecular target: T1, human LHCG receptor (Homo sapiens, UniProt P22888); assay: intracellular cAMP accumulation, agonism at LHCGR stably expressed in HEK EM 293 cells; format: cell-based
T1 construct: expressed in transfected cells
Description: (§1) With reference to Table 1, exemplary disclosed compounds were evaluated against human TSH receptor and human LHCG receptor that were stably expressed in HEK 293 EM cells as previously described by Libert et al. (Biochem. Biophys. Res. Commun. 1989, 165, 1250-1255); and by Schulz et al. (Mol. Endocrinol. 1999, 13, 181-190). Cell surface expression of TSH receptor and LHCG receptor were determined via FACS analysis (Kleinau, G.; Jäschke, H.; Neumann, S.; Lättig, S.; Paschke, R.; Krause, G. J. Biol. Chem. 2004, 279, 51590-51600).
Following aspiration of the medium after incubation with compounds, cells were lysed using lysis buffer 1 of the cAMP Biotrak Enzymeimmunoassay (EIA) System (Amersham Biosciences). The cAMP content of the cell lysate was determined using the manufacturer's protocol. […] The potency (EC50) was obtained from dose response curves (0-100 μM compound) by data analysis with GraphPad Prism 4 for Windows. […] The data are presented as mean±SEM of two independent experiments, each performed in duplicate.
(§2) Transiently transfected cells were cultured for 48 hours before the cAMP assay. HEK-EM 293 cells stably expressing TSHR, LHCGR or FSHR were seeded into 24-well plates with a density of 2.2×10^5 cells/well 24 hours before the cAMP assay. After removal of growth medium, cells were incubated for 1 hour in HBSS (Cellgro) with 10 mM HEPES (Cellgro) containing 1 mM 3-isobutyl-1-methylxanthine (IBMX) (Sigma) and the ligand of interest in a humidified 5% CO2 incubator at 37° C. The intracellular cAMP content was determined with the cAMP Biotrak Enzymeimmunoassay (EIA) System (GE Healthcare). Data were analyzed using GraphPad Prism 4 for Windows. Receptor expression was measured as described in Jaschke et al., J Biol Chem 281:9841-9844.

human TSH receptor = molecular target: T2, human TSH receptor (Homo sapiens, UniProt P16473); assay: intracellular cAMP accumulation, agonism at TSHR stably expressed in HEK EM 293 cells; format: cell-based
T2 construct: expressed in transfected cells
T2 sequence (P16473 21-764): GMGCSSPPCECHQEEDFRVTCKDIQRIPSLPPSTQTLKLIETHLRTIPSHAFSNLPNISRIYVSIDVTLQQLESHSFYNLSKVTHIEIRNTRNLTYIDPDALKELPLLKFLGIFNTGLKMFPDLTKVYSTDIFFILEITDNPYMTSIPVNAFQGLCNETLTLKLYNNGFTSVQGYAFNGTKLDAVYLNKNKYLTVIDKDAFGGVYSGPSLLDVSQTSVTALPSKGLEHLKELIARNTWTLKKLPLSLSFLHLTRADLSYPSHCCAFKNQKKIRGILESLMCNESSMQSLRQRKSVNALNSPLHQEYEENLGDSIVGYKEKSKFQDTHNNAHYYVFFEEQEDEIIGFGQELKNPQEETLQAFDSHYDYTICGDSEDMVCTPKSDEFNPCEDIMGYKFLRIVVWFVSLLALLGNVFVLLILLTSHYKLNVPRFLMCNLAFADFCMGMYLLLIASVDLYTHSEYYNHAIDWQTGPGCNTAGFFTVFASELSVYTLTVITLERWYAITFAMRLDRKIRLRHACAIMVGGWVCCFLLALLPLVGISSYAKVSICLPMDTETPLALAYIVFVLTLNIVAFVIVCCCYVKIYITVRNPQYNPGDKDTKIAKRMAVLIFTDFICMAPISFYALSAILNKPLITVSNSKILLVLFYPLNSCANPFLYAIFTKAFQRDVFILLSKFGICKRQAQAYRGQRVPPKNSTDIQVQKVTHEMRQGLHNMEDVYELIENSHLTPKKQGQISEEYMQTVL
Description: as §1, with “51590-51600). Agonism of compounds 3-20 were determined via measurement of intracellular cyclic AMP accumulation. […] For example, […] certain compounds disclosed herein exerted no discernible effect on the FSH receptor.” for “51590-51600).”
Cells were cultured for 48 h in 24-well plates before incubation for 1 h in serum-free DMEM containing 1 mM 3-isobutyl-1-methylxanthine (IBMX) (SIGMA) and bovine TSH (1.8 μM) (SIGMA) or human LH (1000 ng/ml) (Dr. A. Parlow, NIDDK National Hormone and Pituitary Program) or compounds 3-19 (0-100 μM) in a humidified 5% CO2 incubator. Following aspiration of the medium after incubation with compounds, cells were lysed using lysis buffer 1 of the cAMP Biotrak Enzymeimmunoassay (EIA) System (Amersham Biosciences). The cAMP content of the cell lysate was determined using the manufacturer's protocol. The efficacy of receptor activation by small molecule modulators is expressed as % of maximum response of LHCG receptor or TSH receptor to LH or TSH, respectively. The potency (EC50) was obtained from dose response curves (0-100 μM compound) by data analysis with GraphPad Prism 4 for Windows. With reference to FIG. 1, intracellular cAMP production was determined in response to 100 μM of each compound and is expressed as % of maximum response of TSHR/LHCGR to TSH (100 mU/ml)/LH (1000 ng/ml). The data are presented as mean±SEM of two independent experiments, each performed in duplicate.
as §2

TSHR mutant M9 = assay: cAMP production in HEK-EM 293 cells transiently expressing TSHR mutant M9; format: cell-based, human
Description: HEK-EM 293 cells were grown in Dulbecco's modified Eagle's Medium (DMEM) supplemented with 10% fetal bovine serum, 100 units/ml penicillin and 10 μg/ml streptomycin (Life Technologies Inc.) at 37° C. in a humidified 5% CO2 incubator. Cells were transiently transfected with wild type TSHR and mutant receptors in 24-well plates (7.5×10^4 cells per well) with 0.4 μg DNA/well using FuGENE™ 6 reagent (Roche) according to the manufacturer's protocol.
The M9 mutant is described in Jaschke et al., J Biol Chem 281:9841-9844. The Y7.42A mutant was introduced into hTSHR-pcDNA3.1 via the QuickChange XL Site-Directed Mutagenesis kit (Stratagene). The construct was verified by sequencing (MWG Biotech).
as §2, with “After removal of growth medium, cells were incubated for 1 hour in HBSS (Cellgro) with 10 mM HEPES (Cellgro) containing 1 mM 3-isobutyl-1-methylxanthine (IBMX) (Sigma) and the ligand of interest in a humidified 5% CO2 incubator at 37° C.” left out

LHCG receptor = LHCG receptor (Mus musculus, UniProt P30730); conditions: ovulation induction model; cited from earlier work
Sequence of LHCG receptor (P30730 27-700): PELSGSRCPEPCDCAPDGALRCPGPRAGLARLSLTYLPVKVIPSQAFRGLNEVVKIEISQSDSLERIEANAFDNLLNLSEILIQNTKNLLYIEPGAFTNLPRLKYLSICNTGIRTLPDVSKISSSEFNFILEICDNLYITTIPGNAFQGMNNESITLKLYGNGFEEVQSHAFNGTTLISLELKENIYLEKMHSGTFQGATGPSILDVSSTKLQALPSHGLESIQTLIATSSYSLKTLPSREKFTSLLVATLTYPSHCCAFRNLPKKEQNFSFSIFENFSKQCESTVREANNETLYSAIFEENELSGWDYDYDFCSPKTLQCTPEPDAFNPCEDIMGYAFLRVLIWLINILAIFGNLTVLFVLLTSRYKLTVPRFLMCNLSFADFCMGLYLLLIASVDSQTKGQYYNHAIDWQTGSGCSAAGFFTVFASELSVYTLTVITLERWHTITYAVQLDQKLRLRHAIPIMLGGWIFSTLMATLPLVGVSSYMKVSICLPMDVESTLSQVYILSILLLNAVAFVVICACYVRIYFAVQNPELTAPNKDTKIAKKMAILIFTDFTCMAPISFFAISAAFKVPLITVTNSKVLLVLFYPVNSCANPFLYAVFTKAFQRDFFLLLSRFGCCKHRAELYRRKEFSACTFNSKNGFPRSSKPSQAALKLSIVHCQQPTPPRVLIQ

TSHR [1] = molecular target: T3, TSHR (Homo sapiens, UniProt P16473); assay: inhibition of TSH-mediated cAMP response in HEK-EM 293 cells stably expressing TSHR; format: cell-based; design: expressed in transfected cells
T3 sequence (P16473 21-764): as the sequence (P16473 21-764) above
Description: as §2
The TSH-mediated cAMP response of TSHR was inhibited by a maximum of 70.8±5.5% at 30 μM compound 52. […] Compound 52 has no activity at FSHR.
To exclude the possibility that compound 52 might be acting independently of TSHR by building aggregates with TSH, thereby inhibiting the TSH-induced response, tests were conducted for a possible aggregation between these two ligands. Compound 52 and TSH were preincubated for up to 15 minutes before addition to HEK-EM 293 cells stably expressing TSHR. […] There was no difference in the antagonistic effect whether TSH and compound 52 were preincubated together or not (data not shown) thereby excluding the possibility that its effect was caused by aggregation with TSH.

TSHR [2] = molecular target: T3, TSHR; assay: TsAb (Graves' disease sera)-stimulated cAMP accumulation in HEK-EM 293 cells expressing TSHR; format: cell-based; design: expressed in transfected cells
Description: as §2
To assess the therapeutic potential of compound 52 in patients with Graves' disease, its ability to inhibit TSHR activation by TsAbs was tested. First, four patient sera (GD 5, 19, 29, 30) were used at a dilution of 1:50 to test the effect of compound 52 on TsAb-stimulated cAMP accumulation in HEK-EM 293 cells expressing TSHR. All four sera increased cAMP accumulation, but to different extents (FIG. 6). To assess inhibition, cAMP accumulation was measured in response to TsAbs in the presence of 30 μM compound 52. Indeed, compound 52 reduced TsAb-mediated responses of the different sera (set at 100% for each patient's serum) by 28% to 79% (FIG. 6).

T1 sequence (P22888 27-699): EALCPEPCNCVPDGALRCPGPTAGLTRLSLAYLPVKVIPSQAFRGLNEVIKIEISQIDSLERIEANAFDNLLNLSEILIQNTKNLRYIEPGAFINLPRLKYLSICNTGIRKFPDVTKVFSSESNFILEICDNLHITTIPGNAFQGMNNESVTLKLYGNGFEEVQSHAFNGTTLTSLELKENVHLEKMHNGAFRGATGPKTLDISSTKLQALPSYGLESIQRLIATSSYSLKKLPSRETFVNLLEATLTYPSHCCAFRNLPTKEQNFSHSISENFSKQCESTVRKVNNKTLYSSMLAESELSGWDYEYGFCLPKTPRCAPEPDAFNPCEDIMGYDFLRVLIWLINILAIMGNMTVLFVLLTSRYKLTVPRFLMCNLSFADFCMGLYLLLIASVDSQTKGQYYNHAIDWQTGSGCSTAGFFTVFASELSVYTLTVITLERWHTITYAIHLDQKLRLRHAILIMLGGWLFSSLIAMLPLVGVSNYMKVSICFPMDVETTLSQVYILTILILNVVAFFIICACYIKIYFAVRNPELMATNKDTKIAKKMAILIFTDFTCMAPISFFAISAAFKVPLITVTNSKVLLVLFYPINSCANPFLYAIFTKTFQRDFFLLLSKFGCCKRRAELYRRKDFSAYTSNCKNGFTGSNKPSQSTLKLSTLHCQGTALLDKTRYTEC

% Max. Resp. @ LHCGR in μM (human LHCG receptor; % of maximum response of LHCGR to LH (1000 ng/ml)) [%]	EC50 (human LHCG receptor; read-out: EC50 (LHCGR) in μM [95% C.I.], cAMP, HEK EM 293 cells, dose response 0-100 μM compound) [µM]	partial agonism, % of TSH activity at TSHR (human TSH receptor) [%]	% Max. Resp. @ TSHR in μM (human TSH receptor; % of maximum response of TSHR to TSH (100 mU/ml), * estimated maximum response at 100 μM compound) [%]	agonist activity at TSHR (human TSH receptor; cAMP)	EC50 (human TSH receptor; read-out: EC50 (TSHR) in μm [95% C.I.], cAMP, HEK EM 293 cells, dose response 0-100 μM compound, ** estimated EC50, no plateau) [µM]	inhibition of TSH stimulation of TSH receptor signaling (TSHR [1]) [%]	IC50 (TSHR [1]; with EC50 dose of TSH) [µM]	inhibition of TSH receptor activation by antibodies (IgG) from Graves' disease sera (TSHR [2])	Structure (SMILES)	agonism at M9 (TSHR mutant M9)	in vivo efficacy for LHCG receptor (LHCG receptor)
45.8 ± 5.9	0.3	23	23.4 ± 3.6	partial agonist	6.5	35	11	–	COc1cccc(-c2nc(SC)nc3sc(C(=O)NC(C)(C)C)c(N)c23)c1 [Compound 3, N-tert-butyl-5-amino-4-(3-methoxyphenyl)-2-(methylthio)thieno[2,3-d]pyrimidine-6-carboxamide, reference compound]	full agonist	demonstrated
–	–	–	–	–	–	–	–	inhibit	CC/C=C/c1ccc(-c2nc(SC)nc3sc(C(=O)NC(C)(C)C)c(N)c23)cc1 [N-tert-butyl-5-amino-4-(4-((E)-but-1-enyl)phenyl)-2-(methylthio)thieno[2,3-d]pyrimidine-6-carboxamide]	–	–
